Source: US12103952B2, “Methods for expressing proteins in axons” (Cornell University, priority 2010, dated 2024)

Tested on: E15 dissociated DRG neurons
Experiment: NGF-mediated retrograde survival in compartmented (Campenot) chambers, TUNEL assay
Format: cell-based, rat
Experimental: FIGS. 2A-E are results showing that local protein synthesis in axons is required for NGF-dependent survival. (A) Phospho-4E-BP1 levels increase in growth cones in response to NGF treatment. DRG neurons were incubated with NGF-replete or NGF-free media; phospho-4E-BP1 levels in axons were measured by immunofluorescence. Scale bar, 50 μm. (B) Quantification of total and phospho-4EBP1 in (A) p=0.012. Numbers on bars represent n axons per condition. (C) Schematic diagram of compartmented (Campenot) chambers. E15 dissociated DRG neurons are cultured in the cell body compartment and axons grow under a thinly applied silicone grease layer that seals the chamber with the Permanox® plastic culture slide. (D) Application of protein synthesis inhibitors to axons blocks NGF-mediated retrograde survival. Dissociated DRG neurons were grown in compartmentalized chambers, and vehicle or NGF was added to the axon compartment. 1 μM cycloheximide (CHX) or 40 μM anisomycin (Aniso) were added to the axon compartment concurrently with NGF media. Cell body compartments were kept NGF-free during the course of the experiment. Cells crossing the divider were retrogradely labeled with WGA-Alexa555 and only WGA-positive cell bodies were counted in the data set. Survival was assessed by TUNEL assay. Examples of non-apoptotic and apoptotic are indicated with closed and open arrows, respectively (Blue=DAPI, Green=TUNEL). Scale bar, 20 μm. (E) Quantification of results from (D). *p<0.001. Numbers on bars represent n cells per condition.
Campenot chambers were modified for FISH and Immunofluorescence analysis as follows: Teflon dividers were applied to poly-D-lysine, laminin and collagen (1 mg/ml)-coated Lab-Tek chambers (NUNC). The low autofluorescence of the Permanox® plastic in these chambers allows us to perform fluorescence analyses on these cultures much more readily than is possible using traditional cell culture plasticware. E15 dissociated DRG neurons were plated in the cell body compartment in media containing 100 ng/ml NGF and 20 μM 5′-fluorodeoxyuridine to inhibit glial growth. Media was changed every 2 DIV and NGF concentration in the cell body compartment was halved at each media change. At DIV 5, when axons had crossed the divide into the axonal compartment, NGF was withdrawn from the cell body compartment and experimental media containing NGF (0 ng/ml or 30 ng/ml) and/or drug treatments/siRNA transfection reagents was applied to the axon compartment for a further 2 DIV. All media were completely replaced every subsequent 12 hours to ensure purity of the conditions in the respective compartments. […]

[1] = axonal application together with NGF, 1 μM cycloheximide or 40 μM anisomycin, compared to NGF alone

Molecule | neuronal survival [1] | DRG survival (5 DIV compartmented cultures, NGF applied to either axons or cell bodies individually) | neuronal survival (NGF applied exclusively to the axonal compartment, cell body compartment NGF-free, 48 hour, compared to vehicle-treated axons)
COc1ccc(C[C@H]2NC[C@H](O)[C@H]2OC(C)=O)cc1 [anisomycin] | significant reduction in survival |  | 
C[C@@H]1C[C@@H]([C@H](O)CC2CC(=O)NC(=O)C2)C(=O)[C@@H](C)C1 [cycloheximide] | significant reduction in survival |  | 
NGF: nerve growth factor |  | capable of supporting DRG survival | significant increase in neuronal survival
